In ChEMBL document CHEMBL1130464, “Analogues of trichosatin a and trapoxin B as histone deacetylase inhibitors” (Bioorg Med Chem Lett, 1997):

Key:
[1] = target: T1, Histone deacetylase HD2 (Zea mays) (UniProt Q94F81); experiment: Inhibitory concentration against deacetylase HD2 enzyme of maize at 30 uM
T1 sequence (whole entry): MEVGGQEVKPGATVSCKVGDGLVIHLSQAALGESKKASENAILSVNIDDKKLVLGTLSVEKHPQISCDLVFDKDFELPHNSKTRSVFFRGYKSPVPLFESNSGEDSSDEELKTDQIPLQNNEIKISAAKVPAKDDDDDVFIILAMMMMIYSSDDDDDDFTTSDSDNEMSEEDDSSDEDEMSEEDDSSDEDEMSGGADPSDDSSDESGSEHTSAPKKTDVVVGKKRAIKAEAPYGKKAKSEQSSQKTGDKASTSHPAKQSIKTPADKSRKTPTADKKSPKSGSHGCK

[2] = target: T1, Histone deacetylase HD2 (Zea mays)

| inhibition [1] | IC90 [2] | SMILES |
| --- | --- | --- |
| 94% | – | CN(C)c1ccc(C(=O)NCCCCCC(=O)NO)cc1 |
| 82% | – | O=C(CCCCCCC(=O)N[C@@H](Cc1ccccc1)C(=O)O)NO |
| 76% | – | COC(=O)[C@H](Cc1ccccc1)NC(=O)CCCCCCC(=O)NO |
| – | 100 nM | CC(/C=C/C(=O)NO)=C\[C@@H](C)C(=O)c1ccc(N(C)C)cc1 |
